Experimental data published in patent publication US20240374579A1, “BICYCLIC PGDH INHIBITORS AND METHODS OF MAKING AND USING” (EPIRIUM BIO INC., priority 2021, published 2024).

Target: T1, 15-PGDH/HPGD (Homo sapiens, UniProt P15428)
T1 construct: purchased R&D System 5660-DH
T1 sequence (P15428 1-266): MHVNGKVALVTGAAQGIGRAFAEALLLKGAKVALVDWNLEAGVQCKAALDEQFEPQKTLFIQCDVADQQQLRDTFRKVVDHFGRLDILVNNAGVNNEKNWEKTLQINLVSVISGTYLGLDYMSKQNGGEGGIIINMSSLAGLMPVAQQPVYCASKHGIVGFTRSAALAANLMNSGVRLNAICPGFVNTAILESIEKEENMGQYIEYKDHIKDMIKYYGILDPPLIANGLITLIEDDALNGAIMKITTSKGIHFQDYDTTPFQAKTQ
Test: hPGDH inhibitor screening biochemical assay
Settings: 10 nM enzyme, 15 μM PGE2, 0.25 mM NAD, fluorescence ex/em 340/485 nm
Procedure: A hydroxyprostaglandin dehydrogenase inhibition screening biochemical assay can be performed to assess the synthesized inhibitors provided herein. Provided herein is an exemplary biochemical assay for hPGDH inhibitor screening.
The in vitro biochemical assay can be performed in white, 384 plates in total 20 μl reaction volume consisting of 10 nM of 15-PGDH/HPGD (R&D System #5660-DH), 15 μM Prostaglandin E2 (Sigma, Cat #P5640-10MG) and 0.25 mM β-Nicotinamide adenine dinucleotide sodium salt (Sigma, Cat #N0632-5G) made in reaction buffer (50 mM Tris-HCl, pH 7.5, 0.01% Tween 20) at 10-point dose response curve for test/tool compounds. Briefly, 5 μl (4×) of compounds solution and 5 μl (final concentration, 10 nM) of enzyme solution is added to white 384 well plates and incubated for 10 mins at 37° C. 5 μl (4×) of Prostaglandin E2 and 5 μl (4×) of β-Nicotinamide adenine dinucleotide sodium salt is added to the wells and incubated for 10 mins at room temperature. Fluorescence is recorded at ex/em=340 nm/485 nm. The percentage ([…]) inhibition of enzyme activity was determined relative to positive control (1% DMSO) and IC50 was calculated using GraphPad prism software (four parameter-variable slope equation).

IC50	SMILES
< 100 nM	O=C(O)c1ccc(-n2nnc3cc(C(=O)N4CCC(F)(F)CC4)cnc32)cc1 [Compound C-1, 4-(6-(4,4-difluoropiperidine-1-carbonyl)-3H-[1,2,3]triazolo[4,5-b]pyridin-3-yl)benzoic acid]
< 100 nM	O=C(O)c1ccc(-n2ncc3cc(C(=O)N4CCC(F)(F)CC4)cnc32)cc1 [Compound C-2, 4-(5-(4,4-difluoropiperidine-1-carbonyl)-1H-pyrazolo[3,4-b]pyridin-1-yl) benzoic acid]
< 100 nM	Cc1nc2cc(C(=O)N3CCC(F)(F)CC3)cnc2n1-c1ccc(C(=O)O)cc1 [Compound C-3, 4-(6-(4,4-difluoropiperidine-1-carbonyl)-2-methyl-3H-imidazo[4,5-b]pyridin-3-yl)benzoic acid]
< 100 nM	O=C(c1cnc2c(cnn2-c2ccc(-c3ncn[nH]3)nc2)c1)N1CCC(F)(F)CC1 [Compound C-4]
< 100 nM	O=C(c1cnc2c(c1)nnn2-c1ccc(-c2ncn[nH]2)nc1)N1CCC(F)(F)CC1 [Compound C-5, (3-(6-(1H-1,2,4-triazol-5-yl)pyridin-3-yl)-3H-[1,2,3]triazolo[4,5-b]pyridin-6-yl) (4,4-difluoropiperidin-1-yl)methanone]
< 100 nM	O=C(c1cnc2c(c1)nnn2-c1ccc(-c2ncn[nH]2)cc1)N1CCC(F)(F)CC1 [Compound C-7, (3-(4-(1H-1,2,4-triazol-5-yl)phenyl)-3H-[1,2,3]triazolo[4,5-b]pyridin-6-yl) (4,4-difluoropiperidin-1-yl)methanone]
100 to 1000 nM	O=C(c1ccc2c(c1)nnn2-c1ccc(-c2ncn[nH]2)nc1)N1CCC(F)(F)CC1 [Compound C-9, (1-(6-(1H-1,2,4-triazol-5-yl)pyridin-3-yl)-1H-benzo[d][1,2,3]triazol-5-yl) (4,4-difluoropiperidin-1-yl)methanone]
100 to 1000 nM	O=C(c1ccc2c(c1)nnn2-c1ccc(-c2ncn[nH]2)cc1)N1CCC(F)(F)CC1 [Compound C-10, (1-(4-(1H-1,2,4-triazol-5-yl)phenyl)-1H-benzo[d][1,2,3]triazol-5-yl) (4,4-difluoropiperidin-1-yl)methanone]
100 to 1000 nM	O=C(O)c1ccc(-n2nnc3cc(C(=O)N4CCC(F)(F)CC4)ccc32)cc1 [Compound C-11, 4-(5-(4,4-difluoropiperidine-1-carbonyl)-1H-benzo[d][1,2,3]triazol-1-yl) benzoic acid]
< 100 nM	O=C(c1ccc2c(cnn2-c2ccc(-c3ncn[nH]3)nc2)c1)N1CCC(F)(F)CC1 [Compound C-12]
< 100 nM	O=C(c1ccc2c(cnn2-c2ccc(-c3ncn[nH]3)cc2)c1)N1CCC(F)(F)CC1 [Compound C-13]
< 100 nM	O=C(O)c1ccc(-n2ncc3cc(C(=O)N4CCC(F)(F)CC4)ccc32)cc1 [Compound C-14, 4-(5-(4,4-difluoropiperidine-1-carbonyl)-1H-indazol-1-yl) benzoic acid]
100 to 1000 nM	O=C(c1ccc2c(c1)ncn2-c1ccc(-c2ncn[nH]2)nc1)N1CCC(F)(F)CC1 [Compound C-15, (1-(6-(1H-1,2,4-triazol-5-yl)pyridin-3-yl)-1H-benzo[d]imidazol-5-yl)(4,4-difluoropiperidin-1-yl)methanone]
< 100 nM	O=C(c1ccc2c(c1)ncn2-c1ccc(-c2ncn[nH]2)cc1)N1CCC(F)(F)CC1 [Compound C-16, (1-(4-(1H-1,2,4-triazol-5-yl)phenyl)-1H-benzo[d]imidazol-5-yl)(4,4-difluoropiperidin-1-yl)methanone]
< 100 nM	O=C(O)c1ccc(-n2cnc3cc(C(=O)N4CCC(F)(F)CC4)ccc32)cc1 [Compound C-17, 4-(5-(4,4-difluoropiperidine-1-carbonyl)-1H-benzo[d]imidazol-1-yl) benzoic acid]
< 100 nM	C[C@H]1CCCN(C(=O)c2cnc3c(cnn3-c3ccc(-c4nnc[nH]4)nc3)c2)C1 [Compound C-20]
< 100 nM	C[C@H]1CCN(C(=O)c2cnc3c(cnn3-c3ccc(-c4nnc[nH]4)nc3)c2)C1 [Compound C-21]
< 100 nM	O=C(c1cnc2c(cnn2-c2ccc(-c3nnc[nH]3)nc2)c1)N1CC2CCCC2C1 (stereo not drawn) [Compound C-22]
≥ 1000 nM	CN(C)c1nc2ccc(-n3ncc4cc(C(=O)N5CCC(F)(F)CC5)cnc43)cn2n1 [Compound C-24]
< 100 nM	O=C(c1cnc2c(cnn2-c2ccc(-c3nnc[nH]3)cc2)c1)N1CCCC(F)(F)C1 [Compound C-31]
< 100 nM	C[C@H]1CCCN(C(=O)c2cnc3c(cnn3-c3cncc(-c4nc[nH]n4)c3)c2)C1 [Compound C-34]
< 100 nM	C[C@H]1CCCN(C(=O)c2cnc3c(cnn3-c3cncc(C(N)=O)c3)c2)C1 [Compound C-35]
< 100 nM	O=C(c1cnc2c(cnn2-c2cccc(-c3nnc[nH]3)c2)c1)N1CCC(F)(F)CC1 [Compound C-41, (1-(3-(4H-1,2,4-triazol-3-yl)phenyl)-1H-pyrazolo[3,4-b]pyridin-5-yl)(4,4-difluoropiperidin-1-yl)methanone]
100 to 1000 nM	O=C(c1cnc2c(cnn2-c2ccc(-c3nnc[nH]3)cc2)c1)N1CC2CC2C1 (stereo not drawn) [Compound C-42]
100 to 1000 nM	CCO[C@H]1CCN(C(=O)c2cnc3c(cnn3-c3ccc(-c4nnc[nH]4)cc3)c2)C1 [Compound C-43]
≥ 1000 nM	CCO[C@@H]1CCN(C(=O)c2cnc3c(cnn3-c3ccc(-c4nnc[nH]4)cc3)c2)C1 [Compound C-44]

IC50	SMILES
100 to 1000 nM	C[C@@H]1CCN(C(=O)c2cnc3c(cnn3-c3ccc(-c4nnc[nH]4)cc3)c2)C1 [Compound C-46]
≥ 1000 nM	C[C@H]1CCN(C(=O)c2cnc3c(cnn3-c3ccc(-c4nnc[nH]4)cc3)c2)C1 [Compound C-47]
100 to 1000 nM	O=C(Nc1cccc(-n2ncc3cc(C(=O)N4CCC(F)(F)CC4)cnc32)c1)C1CC1 [Compound C-49]
100 to 1000 nM	CC1(C)CCN(C(=O)c2cnc3c(cnn3-c3ccc(-c4nnc[nH]4)cc3)c2)C1 [Compound C-51]
100 to 1000 nM	CCOC(=O)Nc1cncc(-n2ncc3cc(C(=O)N4CCC[C@H](C(F)(F)F)C4)cnc32)c1 [Compound C-54]
100 to 1000 nM	O=C(c1cnc2c(cnn2-c2ccc(-c3nnc[nH]3)cc2)c1)N1CCCC(C(F)(F)F)C1 (stereo not drawn) [Compound C-58]
< 100 nM	C[C@@H]1CN(C(=O)c2cnc3c(cnn3-c3cc(Cl)cc(-c4nnc[nH]4)c3)c2)CCO1 [Compound C-60]
< 100 nM	CC(F)(F)[C@H]1CCN(C(=O)c2cnc3c(cnn3-c3ccc(-c4nnc[nH]4)cc3)c2)C1 [Compound C-61]
< 100 nM	O=C(c1cnc2c(cnn2-c2cc(Cl)cc(-c3nnc[nH]3)c2)c1)N1CCC(F)(F)CC1 [Compound C-62]
< 100 nM	O=C(c1cnc2c(cnn2-c2ccc(-c3nnc[nH]3)c(F)c2)c1)N1CCC(F)(F)CC1 [Compound C-63]
< 100 nM	O=C(c1cnc2c(cnn2-c2ccc(-c3nnc[nH]3)c(F)c2)c1)N1CCSCC1 [Compound C-64]
100 to 1000 nM	CCOC(=O)Nc1cncc(-n2ncc3cc(C(=O)N4CC[C@H](C(C)(F)F)C4)cnc32)c1 [Compound C-65]
< 100 nM	O=C(c1cnc2c(cnn2-c2cc(Cl)cc(-c3nnc[nH]3)c2)c1)N1CCSCC1 [Compound C-66, (1-(3-chloro-5-(4H-1,2,4-triazol-3-yl)phenyl)-1H-pyrazolo[3,4-b]pyridin-5-yl)(thiomorpholino)methanone]
100 to 1000 nM	O=C(c1cnc2c(cnn2-c2cc(Cl)cc(-c3nnc[nH]3)c2)c1)N1CC[S+]([O-])CC1 [Compound C-67]
< 100 nM	O=C(c1cnc2c(cnn2-c2ccc(-c3nnc[nH]3)c(Cl)c2)c1)N1CCSCC1 [Compound C-68]
100 to 1000 nM	O=C(c1cnc2c(cnn2-c2ccc(-c3nnc[nH]3)c(F)c2)c1)N1CC[S+]([O-])CC1 [Compound C-69]
100 to 1000 nM	O=C(c1cnc2c(cnn2-c2ccc(-c3nnc[nH]3)c(Cl)c2)c1)N1CC[S+]([O-])CC1 [Compound C-70]
< 100 nM	COc1cc(-c2nnc[nH]2)cc(-n2ncc3cc(C(=O)N4CCC(F)(F)CC4)cnc32)c1 [Compound C-71]
< 100 nM	Cc1cc(-n2ncc3cc(C(=O)N4CCC(F)(F)CC4)cnc32)ccc1-c1nnc[nH]1 [Compound C-72]
< 100 nM	O=C(c1cnc2c(cnn2-c2ccc(-c3nnc[nH]3)cc2F)c1)N1CCC(F)(F)CC1 [Compound C-73]
< 100 nM	COc1cc(-n2ncc3cc(C(=O)N4CCC(F)(F)CC4)cnc32)ccc1-c1nnc[nH]1 [Compound C-74]
100 to 1000 nM	CCOC(=O)Nc1cncc(-n2ncc3cc([S+]([O-])CC4CC4)cnc32)c1 (stereo not drawn) [Compound C-90]
100 to 1000 nM	CCCC[S+]([O-])c1cnc2c(cnn2-c2cccc(-c3nnc[nH]3)c2)c1 (stereo not drawn) [Compound C-92]
100 to 1000 nM	CCCC[S+]([O-])c1cnc2c(cnn2-c2ccc(-c3nnc[nH]3)cc2)c1 (stereo not drawn) [Compound C-93]
100 to 1000 nM	CCCC[S+]([O-])c1cnc2c(cnn2-c2cncc(NC(=O)OCC)c2)c1 (stereo not drawn) [Compound C-94]
